Test results taken from US20140243415A1, “COMPOUNDS INHIBITING GALECTIN-1 EXPRESSION, CANCER CELL PROLIFERATION, INVASION, AND TUMORIGENESIS” (ONCOETHIX SA, priority 2011, published 2014).

What was measured:
[1] = system: DLD-1TR21 colon cancer cells; test: Antiproliferative effects, SNAIL-inducible model; assay type: cell-based, human; details: SNAIL-inducible DLD-1TR21
From the text: FIG. 2. Epithelial-to-mesenchymal differentiation and OTX-008 sensitivity. A—Correlations between galectin-1 (LGALS1) and vimentin, E-cadherin (CDH1) and N-cadherin (CDH2) relative mRNA expression. B—Correlations between OTX-008 IC50s and vimentin, E-cadherin (CDH1) and N-cadherin (CDH2) relative mRNA expression. C—Antiproliferative effects of OTX-008 in epithelial COLO205-S and mesenchymal COLO205-R colon cancer cells. D—Antiproliferative effects of OTX-008 in SNAIL-inducible colon cancer cell lines. E—Antiproliferative effects of OTX-008 in shWISP breast cancer cell lines.
Cell survival was determined using the MTT assay (3-[4,5-dimethylthiazol-2-yl]-2,5-diphenyltetrazolium bromide; Sigma, Saint-Quentin Fallavier, France). The conversion of yellow water-soluble tetrazolium MTT into purple insoluble formazan is catalyzed by mitochondrial dehydrogenases and used to estimate the number of viable cells. In brief, cells were seeded in 96-well tissue culture plates at a density of 2×10^3 cells/well. […] After incubation, the supernatant was discarded, insoluble formazan precipitates were dissolved in 0.1 ml of DMSO and the absorbance was measured at 560 nm by use of a microplate reader (Thermo, France). […] IC50's were determined as the halves of maximal inhibitory drug concentration for each cell line. […]

[2] = system: SQ-shGal1 cells; test: Antiproliferative effects in galectin-1 silenced cells; assay type: cell-based, human; details: SQ-shGal1 cells in vitro
Description: Galectin-1 shRNA, Semaphorin-3A shRNA and scrambled shRNA plasmids were purchased from Santa Cruz Biotechnology (Santa Cruz, Calif., USA) and transfected into cells using the manufacturer's shRNA transfection protocol. Briefly, a mix of 1 μg shRNA plasmid DNA solution and lpl shRNA plasmid transfection reagent were incubated 45 minutes at room temperature and then added on 50% confluent cells with shRNA plasmid transfection medium. After 6 hours incubation at 37° C., normal growth medium containing double serum and antibiotics concentration was added. After 24 h, the stably transfected cells were selected with puromycin.
SQ-shGal1 cells were developed from SQ20B using a small hairpin GAL1-RNA silencing transfection. SQ-shGal1 cells display no difference in cell doubling-time and cloning capacity but expressed lower galectin-1 expression and invasive capacity in matrigel as compared to SQ20B (FIG. 8). […] As shown in FIG. 6C-left, silencing galectin-1 expression in mice was associated with a decreased development of secondary tumors as compared to parental SQ20B tumors. SQ-shGal1 cancer cells in tumors expressed lower level of Ki67 and VEGFR-2 expressions (FIG. 6D).

[3] = system: chk1, chk2, and cdc25C; test: chk1, chk2 and cdc25C phosphorylation in SQ20B; assay type: cell-based, human; details: OTX-008-treated SQ20B cells
[4] = system: SQ20B xenografts; test: SQ20B xenograft model; assay type: in vivo
Description: FIG. 6. […] A—The antitumor effects of OTX-008 on A2780-1A9 xenograft were compared to that of active doses of cisplatin and paclitaxel—solid line represents days of treatment. B—Immunohistochemistry of galectin-1, Ki67 (MIB-1) and CD31 on A2780-1A9 xenograft. C—Tumor growth and secondary tumor formation of SQ20B xenografts untreated and treated with 10 mg/kg/day OTX-008 and SQ-shGAL1 xenografts. Tumor volume was determined as 3.14(width2)/length—solid line represents days of treatment. D—Immunohistochemistry of galectin-1, MIB1, VEGFR2 and CD31 on SQ20B xenografts
The immunohistochemical procedure was performed on OCT-embedded subcutaneous tumor stained with H&E, MIB1 ( 1/400, Dako, Glostrup, Denmark), CD31 ( 1/200, Dako), VEGFR2 ( 1/125, Cell Signaling, Saint Quentin Yvelines, France) or galectin-1 (1:20, Abcam, Cambridge, Mass., USA) using an automated immunohistochemical stainer according to the manufacturer's guidelines (streptavidin-peroxidase protocol; Benchmark, Ventana, Tuscon, Ariz., USA). The images were captured and analyzed with a Zeiss observer Z1 microscope. Images quantification was performed using Histolab Software (Microvision, France) subtracting the background. Magnification ×20 and ×40.
5.10^6 SQ20B or SQ20B-shGal1 cancer cells were injected s.c. into the right lateral flank of female nu/nu athymic mice. On day 5, mice were randomized; one group of SQ20B-mice was treated every other day with 10 mg/kg OTX-008 i.p. Tumor size was measured twice weekly with caliper and tumor volume was calculated as 3.14(width^2)/length. At the end of the study, mice were sacrificed, tumors were weighed and stored in OCT for molecular biology and immunohistochemical analysis. Secondary tumors were analyzed on liver, lung, intestine and skin in all mice. Mouse experiments complied with guidelines for Animal Housing and Experiment Board of the French authorities.

[5] = 10 mg/kg OTX-008 i.p. every other day

**Q.** For `CN(C)CCNC(=O)COc1c2cccc1Cc1cccc(c1OCC(=O)NCCN(C)C)Cc1cccc(c1OCC(=O)NCCN(C)C)Cc1cccc(c1OCC(=O)NCCN(C)C)C2` [OTX-008], which “effect of SNAIL induction on sensitivity” value [1] is on record?
**A.** Its value is “no impact on sensitivity”.

**Q.** What about the “antiproliferative effects in galectin-1 silenced cells” value [2] of the same compound?
**A.** Its value is “does not further increase its antiproliferative effects”.

**Q.** What about the “chk1, chk2, and cdc25C phosphorylation levels” value [3] of the same compound?
**A.** The value was “Mild to no changes”.

**Q.** What about the “mice developing subcutaneous metastasis” value ([4]; 10 mg/kg OTX-008, control group >80%) of the same compound?
**A.** Its value is 14%.

**Q.** And the “toxicity of the dose” value [4, 5]?
**A.** The value was “non-toxic dose”.

**Q.** What about the tumor growth [4, 5] of the same compound?
**A.** Its tumor growth is “inhibited the growth of SQ20B xenografts”.

**Q.** And the “cell proliferation (Ki67)” value ([4]; SQ20B xenograft)?
**A.** Its value is “significant decrease”.

**Q.** And the “galectin-1 expression in tumors” value ([4]; SQ20B xenograft)?
**A.** Its value is “significant decrease”.

**Q.** What about the secondary tumor development ([4]; at mouse autopsies) of the same compound?
**A.** The secondary tumor development was “significantly inhibited secondary tumor development”.

**Q.** And the “number and diameter of micro-vessels” value ([4]; vs control)?
**A.** Its value is “significantly reduced”.
